Assay results taken from patent publication US11396516B2, “Tricyclic compounds as Cyp1 inhibitors” (The General Hospital Corporation, priority 2017, dated 2022).
pEC50, pIC50: −log10 of the molar value. Read-outs that look alike come from different tables or passages of the source.

Experiments:
[1] = system: zebrafish embryos treated with DOX (cardiomyopathy phenotype); experiment: Zebrafish doxorubicin cardiomyopathy model (rescue from phenotype); format: in vivo; details: for rescue from the doxorubicin cardiomyopathy phenotype: zebrafish co-treated with doxorubicin, inhibitors at 10 μM; for protection against doxorubicin cardiotoxicity in the zebrafish model: co-treatment with doxorubicin
Protocol: Zebrafish embryos at 30 hours post-fertilization were treated with DOX at 100 μM in 96-well plates as previously described (Liu et al., 2014). Tested compounds were dissolved in DMSO and added at concentrations ranging from 3 nM to 10 μM (n=6 fish per dose; <1% DMSO v/v). The cardiomyopathy phenotype (decreased cardiac contraction, pericardial edema, and decreased tail blood flow) was assessed under light microscopy (5× magnification) at 40 hours post-treatment (hpt). Percent rescue from the cardiomyopathy phenotype was calculated for each concentration tested. Zebrafish were considered to be rescued from DOX-induced cardiomyopathy if all three features of the phenotype were absent. For the tested compounds, each dose-response experiment was repeated three times.
Dose-response curves were constructed using Prism (GraphPad).
Zebrafish were treated with DOX and assessed for the development of the cardiomyopathy phenotype (decreased cardiac contraction, pericardial edema, and decreased tail blood flow). Zebrafish were considered to be rescued if all three features of the cardiomyopathy phenotype were absent upon co-treatment with a tested compound. Referring to FIGS. 3-9, data are depicted as mean+/−standard error (n=6 fish per dose; each experiment performed in triplicate).

[2] = system: HL-1 cardiomyocytes; experiment: Cultured HL-1 cardiomyocyte model (DOX-induced apoptosis, viability); format: cell-based, mouse; details: Mus musculus, HL-1; doxorubicin 5 μM, viability after 18 hours, CellTiter-Glo; read-out: EC50 in HL-1 Cells
Protocol: The cardiomyocyte cell line HL-1 derived from mouse atrial tumor was a gift from W. Claycomb. Cells were cultured as previously published (Claycomb et al., 1998) and treated with doxorubicin 5 μM with or without the tested compounds at a concentration up to 50 μM. Viability was assessed after 18 hours of using a CellTiter-Glo Luminescent assay from Promega. Each dose-response experiment was repeated three times.
Compounds were tested in HL-1 cultured cardiomyocytes to assess for efficacy in preventing DOX-induced apoptosis. Cell viability was assessed as described in the materials and methods section.

[3] = molecular target: CYP1A (Homo sapiens (Human), UniProt P05177); experiment: CYP inhibition assay, human liver microsomes; format: biochemical
Chain of CYP1A (Homo sapiens (Human), UniProt P05177) (P05177 whole entry): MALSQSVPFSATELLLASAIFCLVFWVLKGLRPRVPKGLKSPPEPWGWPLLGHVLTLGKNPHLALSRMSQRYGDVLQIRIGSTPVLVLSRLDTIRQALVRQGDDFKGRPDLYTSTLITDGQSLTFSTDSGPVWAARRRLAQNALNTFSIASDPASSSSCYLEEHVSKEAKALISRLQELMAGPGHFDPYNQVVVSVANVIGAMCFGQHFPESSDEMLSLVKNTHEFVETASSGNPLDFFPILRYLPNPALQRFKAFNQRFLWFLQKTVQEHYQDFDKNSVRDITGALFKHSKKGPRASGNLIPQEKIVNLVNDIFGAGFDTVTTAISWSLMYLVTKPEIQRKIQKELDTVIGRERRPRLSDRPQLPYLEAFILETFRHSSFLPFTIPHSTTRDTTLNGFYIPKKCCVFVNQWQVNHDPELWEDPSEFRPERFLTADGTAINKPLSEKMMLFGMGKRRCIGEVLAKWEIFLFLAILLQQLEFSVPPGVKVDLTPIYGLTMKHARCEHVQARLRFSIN
Protocol: (§1) CYP inhibition experiments were performed by Cerep Panlabs (Eurofins) using human liver microsomes and the following substrates: phenacetin 10 μM (CYP1A), buproprion 100 μM (CYP2B6), paclitaxel 10 μM (CYP2C8), diclofenac 10 μM (CYP 2C9), omeprazole 0.5 μM (CYP2C19), dextromethorphan 5 μM (CYP2D6), and testosterone 50 μM (CYP3A). Metabolites of each substrate were measured using LC-MS/MS. Mean percent inhibition was calculated using the following reference inhibitors: furafylline (CYP1A), clopidogrel (CYP2B6), montelukast (CYP2C8), sulfaphenazole (CYP2C9), oxybutynin (CYP2C19), quinidine (CYP2D6), and ketoconazole (CYP3A). […] All concentrations were tested in duplicate to obtain the final results.
(§2) The ability of the tested compounds to inhibit a panel of CYP enzymes in vitro was assessed using a series of human liver microsome assays.

[4] = molecular target: CYP2C19 (Homo sapiens (Human), UniProt P33261); experiment: CYP inhibition assay, human liver microsomes; format: biochemical; details: omeprazole 0.5 μM, reference oxybutynin
Chain of CYP2C19 (P33261 whole entry): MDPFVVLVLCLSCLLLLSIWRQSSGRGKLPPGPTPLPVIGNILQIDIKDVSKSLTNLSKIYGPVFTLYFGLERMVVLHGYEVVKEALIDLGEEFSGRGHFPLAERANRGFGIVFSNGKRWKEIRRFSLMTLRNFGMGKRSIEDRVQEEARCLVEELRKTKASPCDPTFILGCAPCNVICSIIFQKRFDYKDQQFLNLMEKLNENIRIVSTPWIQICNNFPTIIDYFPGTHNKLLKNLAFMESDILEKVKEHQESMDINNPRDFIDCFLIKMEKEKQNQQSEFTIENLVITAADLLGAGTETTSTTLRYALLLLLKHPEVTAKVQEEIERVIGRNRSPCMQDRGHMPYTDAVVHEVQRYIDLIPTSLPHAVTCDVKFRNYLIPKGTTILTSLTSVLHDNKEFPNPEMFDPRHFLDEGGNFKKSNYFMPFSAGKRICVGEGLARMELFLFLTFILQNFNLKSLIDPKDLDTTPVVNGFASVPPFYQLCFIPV
Protocol: as §1, §2

[5] = molecular target: CYP2C8 (Homo sapiens (Human), UniProt P10632); experiment: CYP inhibition assay, human liver microsomes; format: biochemical; details: paclitaxel 10 μM, reference montelukast
Chain of CYP2C8 (P10632 whole entry): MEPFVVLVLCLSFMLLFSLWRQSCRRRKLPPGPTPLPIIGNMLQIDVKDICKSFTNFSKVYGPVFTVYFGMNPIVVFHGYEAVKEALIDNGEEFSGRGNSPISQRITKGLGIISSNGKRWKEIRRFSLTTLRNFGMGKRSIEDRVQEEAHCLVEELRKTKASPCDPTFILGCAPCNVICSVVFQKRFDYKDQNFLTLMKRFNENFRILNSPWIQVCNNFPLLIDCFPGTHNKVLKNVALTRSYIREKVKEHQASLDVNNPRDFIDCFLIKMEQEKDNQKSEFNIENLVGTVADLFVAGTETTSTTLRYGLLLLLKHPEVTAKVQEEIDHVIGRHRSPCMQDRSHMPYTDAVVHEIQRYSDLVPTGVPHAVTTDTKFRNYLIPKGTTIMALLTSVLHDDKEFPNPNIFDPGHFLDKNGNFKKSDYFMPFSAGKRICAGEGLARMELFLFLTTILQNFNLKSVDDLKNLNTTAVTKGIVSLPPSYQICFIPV
Protocol: as §1, §2

[6] = molecular target: CYP2C9 (Homo sapiens (Human), UniProt P11712); experiment: CYP inhibition assay, human liver microsomes; format: biochemical; details: diclofenac 10 μM, reference sulfaphenazole
Chain of CYP2C9 (P11712 whole entry): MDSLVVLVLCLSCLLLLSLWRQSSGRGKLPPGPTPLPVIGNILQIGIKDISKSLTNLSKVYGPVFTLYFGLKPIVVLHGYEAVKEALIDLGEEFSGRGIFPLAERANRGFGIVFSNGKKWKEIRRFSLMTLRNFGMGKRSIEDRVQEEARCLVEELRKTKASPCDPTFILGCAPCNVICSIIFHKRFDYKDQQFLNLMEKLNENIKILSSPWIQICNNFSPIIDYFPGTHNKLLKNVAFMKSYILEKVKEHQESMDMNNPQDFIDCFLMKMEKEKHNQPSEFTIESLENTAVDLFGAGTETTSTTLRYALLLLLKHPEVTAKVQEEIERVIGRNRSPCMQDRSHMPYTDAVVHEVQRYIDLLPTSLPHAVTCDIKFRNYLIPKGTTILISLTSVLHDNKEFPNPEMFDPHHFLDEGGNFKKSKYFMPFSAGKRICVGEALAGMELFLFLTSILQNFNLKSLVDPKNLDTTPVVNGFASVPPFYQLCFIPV
Protocol: as §1, §2

[7] = molecular target: CYP2D6 (Homo sapiens (Human), UniProt P10635); experiment: CYP inhibition assay, human liver microsomes; format: biochemical; details: dextromethorphan 5 μM, reference quinidine
Chain of CYP2D6 (P10635 whole entry): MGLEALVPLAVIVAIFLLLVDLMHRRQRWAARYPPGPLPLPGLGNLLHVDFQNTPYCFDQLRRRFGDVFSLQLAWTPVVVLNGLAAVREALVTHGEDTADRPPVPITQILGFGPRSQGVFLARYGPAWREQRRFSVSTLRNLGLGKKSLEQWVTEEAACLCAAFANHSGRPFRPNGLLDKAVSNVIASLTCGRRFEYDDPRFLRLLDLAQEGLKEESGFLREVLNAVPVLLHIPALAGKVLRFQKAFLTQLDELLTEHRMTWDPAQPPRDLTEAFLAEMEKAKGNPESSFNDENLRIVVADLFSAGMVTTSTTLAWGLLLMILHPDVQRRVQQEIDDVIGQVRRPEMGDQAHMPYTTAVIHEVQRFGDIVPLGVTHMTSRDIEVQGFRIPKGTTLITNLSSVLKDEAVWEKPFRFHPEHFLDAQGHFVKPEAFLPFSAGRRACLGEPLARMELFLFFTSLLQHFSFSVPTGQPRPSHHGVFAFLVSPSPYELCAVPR
Protocol: as §1, §2

[8] = molecular target: CYP3A (Homo sapiens, UniProt P08684); experiment: CYP inhibition assay, human liver microsomes; format: biochemical; details: testosterone 50 μM, reference ketoconazole
Chain of CYP3A (P08684 2-503 limits assumed): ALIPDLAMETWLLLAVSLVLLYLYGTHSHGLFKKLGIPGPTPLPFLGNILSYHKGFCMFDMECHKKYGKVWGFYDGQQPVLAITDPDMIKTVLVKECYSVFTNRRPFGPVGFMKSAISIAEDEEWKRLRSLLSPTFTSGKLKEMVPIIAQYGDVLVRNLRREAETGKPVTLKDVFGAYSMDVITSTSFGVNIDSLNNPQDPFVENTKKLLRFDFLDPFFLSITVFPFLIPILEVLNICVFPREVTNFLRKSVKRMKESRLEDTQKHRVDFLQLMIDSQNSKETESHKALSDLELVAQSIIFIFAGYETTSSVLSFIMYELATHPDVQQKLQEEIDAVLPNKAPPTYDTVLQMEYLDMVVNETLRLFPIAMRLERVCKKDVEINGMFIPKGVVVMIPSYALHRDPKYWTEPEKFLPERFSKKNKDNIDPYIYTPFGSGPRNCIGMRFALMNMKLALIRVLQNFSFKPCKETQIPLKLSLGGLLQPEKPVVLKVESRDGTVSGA
Protocol: as §1, §2

[9] = system: CYP1A; experiment: Zebrafish proteomics; format: in vivo; details: zebrafish embryos, visnagin 20 μM
Protocol: (§3) The proteomics analysis was carried out as described in the material and methods section. All protein abundance values are normalized to DMSO-treated control zebrafish. * p<0.05 compared to the DMSO control using the Benjamini-Hochberg method of correcting for multiple hypotheses.

[10] = system: cyp1b1; experiment: Zebrafish proteomics; format: in vivo; details: zebrafish embryos, visnagin 20 μM
Protocol: as §3

[11] = system: cyp1c1; experiment: Zebrafish proteomics; format: in vivo; details: zebrafish embryos, visnagin 20 μM
Protocol: as §3

[12] = system: dhrs13l1; experiment: Zebrafish proteomics; format: in vivo; details: zebrafish embryos, visnagin 20 μM
[13] = system: rad9a; experiment: Zebrafish proteomics; format: in vivo; details: zebrafish embryos, visnagin 20 μM
[14] = system: sqstm1; experiment: Zebrafish proteomics; format: in vivo; details: zebrafish embryos, visnagin 20 μM
[15] = system: thbs1b; experiment: Zebrafish proteomics; format: in vivo; details: zebrafish embryos, visnagin 20 μM
[16] = system: LOC100332237; experiment: Zebrafish proteomics; format: in vivo; details: zebrafish embryos, visnagin 20 μM
[17] = system: slc2a1a; experiment: Zebrafish proteomics; format: in vivo; details: zebrafish embryos, visnagin 20 μM
[18] = system: gstp2; experiment: Zebrafish proteomics; format: in vivo; details: zebrafish embryos, visnagin 20 μM
[19] = system: zebrafish embryos; experiment: Zebrafish toxicity in the absence of doxorubicin (TD50); details: without doxorubicin
Protocol: Dose-response curves were constructed using Prism (GraphPad). Raw data representing percent rescue at each dose was log-transformed, and EC50 values were calculated using nonlinear regression analysis. The median toxic dose (TD50) was defined for each compound by assessing for pericardial edema, non-specific deformities, and death in the absence of doxorubicin treatment (data not shown). Concentrations at and above the TD50 (toxic dose) were excluded from dose-response curves.

[20] = Danio rerio, rescue from DOX (100 μM) cardiomyopathy phenotype, 40 hours post-treatment, read-out: EC50 is zebrafish
[21] = Danio rerio, rescue from DOX cardiomyopathy phenotype, read-out: EC50 in the zebrafish DOX model

O=c1ccc2c(OCC3CO3)c3ccoc3cc2o1 (stereo not drawn) [Example 1, 4-(oxiran-2-ylmethoxy)-7H-furo[3,2-g]chromen-7-one]
pEC50 [1, 20]: 7.28
pEC50 [2]: < 4.30

4-ethoxy-7-methyl-5H-furo[3,2-g][1]-benzopyran-5-one [visnagin]
pIC50 [3]: 6.62
Mean % Inhibition CYP2C19 [4]: 1.2%
Mean % Inhibition CYP2C8 [5]: 8.1%
Mean % Inhibition CYP2C9 [6]: 1.7%
Mean % Inhibition CYP2D6 [7]: 9.9%
Mean % Inhibition CYP3A [8]: 4.2%
Protein Abundance (Normalized to DMSO) cyp1a ([9]; 40 hours post-treatment): 0.84
DOX/DOX+ visnagin protein abundance ratio cyp1a [9]: 7.03
Protein Abundance (Normalized to DMSO) cyp1b1 ([10]; 40 hours post-treatment): 0.94
DOX/DOX+ visnagin protein abundance ratio cyp1b1 [10]: 5.31
Protein Abundance (Normalized to DMSO) cyp1c1 ([11]; 40 hours post-treatment): 0.80
DOX/DOX+ visnagin protein abundance ratio cyp1c1 [11]: 7.57
Protein Abundance (Normalized to DMSO) dhrs13l1 ([12]; 40 hours post-treatment): 0.89
DOX/DOX+ visnagin protein abundance ratio dhrs13l1 [12]: 2.79
Protein Abundance (Normalized to DMSO) rad9a ([13]; 40 hours post-treatment): 1.15
DOX/DOX+ visnagin protein abundance ratio rad9a [13]: 2.50
Protein Abundance (Normalized to DMSO) sqstm1 ([14]; 40 hours post-treatment): 0.98
DOX/DOX+ visnagin protein abundance ratio sqstm1 [14]: 2.43
Protein Abundance (Normalized to DMSO) thbs1b ([15]; 40 hours post-treatment): 0.89
DOX/DOX+ visnagin protein abundance ratio thbs1b [15]: 2.39
Protein Abundance (Normalized to DMSO) LOC100332237 ([16]; 40 hours post-treatment): 0.96
DOX/DOX+ visnagin protein abundance ratio LOC100332237 [16]: 2.34
Protein Abundance (Normalized to DMSO) slc2a1a ([17]; 40 hours post-treatment): 0.83
DOX/DOX+ visnagin protein abundance ratio slc2a1a [17]: 2.23
Protein Abundance (Normalized to DMSO) gstp2 ([18]; 40 hours post-treatment): 0.89
DOX/DOX+ visnagin protein abundance ratio gstp2 [18]: 2.14

CC(C)(C)OC(=O)N1CC(COc2c3ccoc3cc3oc(=O)ccc23)C1 [Example 4, tert-butyl 3-(((7-oxo-7H-furo[3,2-g]chromen-4-yl)oxy)methyl)azetidine-1-carboxylate]
pEC50 [1, 20]: 8.00
pEC50 [2]: < 4.30

CC(C)(C)OC(=O)NCCOc1c2ccoc2cc2oc(=S)ccc12 [Example 7, tert-butyl (2-((7-thioxo-7H-furo[3,2-g]chromen-4-yl)oxy)ethyl)carbamate]
pEC50 [1, 20]: 6.59

CC(C)(C)OC(=O)NCCOc1c2ccoc2cc2oc(=O)ccc12 [Example 3]
pEC50 [1, 20]: 8.52
pEC50 [2]: < 4.30

COc1cc(C=Cc2ccc(OC)cc2OC)cc(OC)c1 [2,4,3′,5′-tetramethoxystilbene]
pEC50 [1, 21]: 5.07
rescue from the doxorubicin cardiomyopathy phenotype [1]: significant rescue
protection against doxorubicin cardiotoxicity in the zebrafish model [1]: prevented DOX cardiomyopathy

O=C(NCCCOc1c2ccoc2cc2oc(=O)ccc12)Oc1ccccc1 [Example 6]
pEC50 [1, 20]: 7.48
pEC50 [2]: < 4.30

Cc1ccccc1N=Nc1ccc(NC(=O)c2ccnn2C)c(C)c1 [CH-233191]
rescue from the doxorubicin cardiomyopathy phenotype [1]: significant rescue
protection against doxorubicin cardiotoxicity in the zebrafish model [1]: prevented DOX cardiomyopathy

c1cc2ccc3cccc4ccc(c1)c2c34 [pyrene]
pEC50 [1, 21]: 5.43
rescue from the doxorubicin cardiomyopathy phenotype [1]: significant rescue
protection against doxorubicin cardiotoxicity in the zebrafish model [1]: prevented DOX cardiomyopathy

COC(=O)c1csc(C(=O)c2c[nH]c3ccccc23)n1 [ITE, methyl 2-(1H-indole-3-carbonyl)-1,3-thiazole-4-carboxylate]
toxicity to zebrafish embryos without doxorubicin [19]: not toxic

CCSC(=O)NCCOc1c2ccoc2cc2oc(=O)ccc12 [Example 5, S-ethyl (2-((7-oxo-7H-furo[3,2-g]chromen-4-yl)oxy)ethyl)carbamothioate]
pEC50 [1, 20]: 8.52

O=c1cc(-c2ccccc2)oc2c1ccc1ccccc12 [α-naphthoflavone]
pEC50 ([1]; rescue from DOX (100 μM) cardiomyopathy phenotype, 40 hours post-treatment, read-out: EC50 is zebrafish): 6.53
rescue from the doxorubicin cardiomyopathy phenotype [1]: significant rescue
protection against doxorubicin cardiotoxicity in the zebrafish model [1]: prevented DOX cardiomyopathy
